Source: ChEMBL document CHEMBL1201862, “PubChem BioAssay data set” (2004)
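Following 48 hours of exposure in 96-well plates, responses at five concentrations were used to interpolate endpoints linearly. Here, GI50 denotes the concentration required for 50% inhibition of growth.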 Calls of active or inactive are those of the source. No stated cut-off is given here; in the data, active = GI50 up to about 1.1 µM and inactive = higher.

Legend:
Test in all cases: DTP human tumour cell line panel, 48 h
BT-549 = test system: BT-549
SK-OV-3 = test system: SK-OV-3
U-251 = test system: U-251
SR = test system: SR
SNB-75 = test system: SNB-75
NCI-H460 = test system: NCI-H460
CAKI-1 = test system: CAKI-1
NCI/ADR-RES = test system: NCI/ADR-RES
PC-3 = test system: PC-3
HOP-62 = test system: HOP-62
K562 = test system: K562
SW-620 = test system: SW-620
MCF7 = test system: MCF7
OVCAR-5 = test system: OVCAR-5
NCI-H522 = test system: NCI-H522
A549 = test system: A549
T47D = test system: T47D
HCT-116 = test system: HCT-116
CCRF-CEM = test system: CCRF-CEM
HL-60 = test system: HL-60

Measured: GI50

CC(C)(C)OC(=O)NCCNC(=O)OCc1ccccc1
inactive: BT-549 > 100 µM | SK-OV-3 > 100 µM | U-251 > 100 µM | SR > 100 µM | SNB-75 > 100 µM | NCI-H460 > 100 µM | CAKI-1 > 100 µM | NCI/ADR-RES > 100 µM | PC-3 > 100 µM | HOP-62 > 100 µM | K562 85.9 µM | SW-620 > 100 µM | MCF7 > 100 µM | OVCAR-5 > 100 µM | NCI-H522 > 100 µM | A549 > 100 µM

CC(=O)OCCn1cnc2nc(Nc3ccccc3)nc(Cl)c21
inactive: T47D 40.7 µM | SK-OV-3 > 100 µM | U-251 58.3 µM | HCT-116 71.1 µM | SR 54.8 µM | NCI-H460 51.9 µM | CCRF-CEM 69.2 µM | NCI/ADR-RES 95.3 µM | PC-3 62.7 µM | HOP-62 > 100 µM | K562 49 µM | SW-620 > 100 µM | MCF7 46.8 µM | OVCAR-5 > 100 µM | NCI-H522 84.9 µM | HL-60 47.8 µM | A549 > 100 µM

CCCNC(=S)N/N=C/c1cccc(C)n1
inactive: T47D 3.43 µM | SK-OV-3 46 µM | U-251 21.9 µM | HCT-116 7.18 µM | SR 15 µM | CCRF-CEM 2.69 µM | NCI/ADR-RES 31 µM | PC-3 38.6 µM | HOP-62 25.6 µM | K562 31.7 µM | MCF7 41.2 µM | OVCAR-5 44.5 µM | NCI-H522 4.04 µM | HL-60 25.9 µM | A549 26.4 µM

CCN1CC2=C(OC(N)=C(C#N)C2c2ccc(Cl)cc2)/C(=C/c2ccc(Cl)cc2)C1 (stereo not drawn)
inactive: BT-549 70.8 µM | SK-OV-3 18.7 µM | U-251 16.4 µM | HCT-116 14.1 µM | SR 31.9 µM | SNB-75 12.5 µM | NCI-H460 14 µM | CAKI-1 10.2 µM | CCRF-CEM 18.3 µM | NCI/ADR-RES 27.3 µM | PC-3 18.2 µM | HOP-62 18.2 µM | K562 8.81 µM | SW-620 44.1 µM | MCF7 30.5 µM | OVCAR-5 20.1 µM | NCI-H522 25.1 µM | HL-60 > 100 µM | A549 14.2 µM

O=C1Nc2c(Cl)cc(Cl)cc2/C1=N/NC(=O)c1ccccc1O
inactive: BT-549 14.5 µM | SK-OV-3 16.8 µM | U-251 8.51 µM | HCT-116 13.6 µM | SR 5.4 µM | SNB-75 9.77 µM | NCI-H460 13.5 µM | CAKI-1 16.8 µM | CCRF-CEM 11.2 µM | NCI/ADR-RES 11.5 µM | PC-3 14.8 µM | HOP-62 15.4 µM | SW-620 16.9 µM | MCF7 19.1 µM | OVCAR-5 18.3 µM | HL-60 15.1 µM | A549 13.2 µM

Fc1ccccc1CN1COc2c(cc(Cl)c3cccnc23)C1
active: SR 0.389 µM | NCI-H460 0.533 µM | NCI/ADR-RES 0.0425 µM | HL-60 0.265 µM
inactive: T47D 3.6 µM | SK-OV-3 6 µM | U-251 1.56 µM | HCT-116 1.26 µM | SNB-75 1.56 µM | CAKI-1 1.65 µM | PC-3 1.44 µM | HOP-62 1.16 µM | K562 1.3 µM | SW-620 3.08 µM | MCF7 3.33 µM | OVCAR-5 3.05 µM | NCI-H522 2.68 µM | A549 2.16 µM

N/C(=N\c1ccccc1Cl)c1ccccc1N
inactive: BT-549 > 100 µM | SK-OV-3 > 100 µM | U-251 > 100 µM | HCT-116 > 100 µM | SR > 100 µM | SNB-75 95.5 µM | NCI-H460 > 100 µM | CAKI-1 > 100 µM | CCRF-CEM > 100 µM | NCI/ADR-RES > 100 µM | PC-3 > 100 µM | HOP-62 > 100 µM | K562 > 100 µM | SW-620 > 100 µM | MCF7 > 100 µM | OVCAR-5 > 100 µM | NCI-H522 > 100 µM | HL-60 > 100 µM | A549 > 100 µM

C=CC1(c2ccc3ccccc3c2)OCC(CC)(CC)CO1
inactive: T47D 22.5 µM | SK-OV-3 53.1 µM | U-251 21.5 µM | HCT-116 21.3 µM | SNB-75 47.6 µM | NCI-H460 22.1 µM | CCRF-CEM 20.3 µM | NCI/ADR-RES 30.1 µM | PC-3 26.9 µM | HOP-62 27.4 µM | K562 25.1 µM | SW-620 14.9 µM | MCF7 37.6 µM | OVCAR-5 18.8 µM | NCI-H522 24.5 µM | HL-60 21.6 µM | A549 33.9 µM

COC(=O)CC1(O)C(/C=C/c2ccccc2)C(C(=O)OC)C(=O)C(C(=O)OC)C1C(=O)OC (stereo not drawn)
inactive: SK-OV-3 > 100 µM | U-251 79.3 µM | HCT-116 54 µM | SR > 100 µM | NCI-H460 > 100 µM | CAKI-1 > 100 µM | CCRF-CEM 48.3 µM | NCI/ADR-RES 85.3 µM | PC-3 78.7 µM | HOP-62 > 100 µM | K562 > 100 µM | SW-620 > 100 µM | MCF7 96.8 µM | OVCAR-5 > 100 µM | NCI-H522 49.5 µM | HL-60 > 100 µM | A549 > 100 µM

Clc1cccc(/C=c2\nc(-c3ccccc3)n3c2nc2ccccc23)c1
inactive: BT-549 88.3 µM | SK-OV-3 57.5 µM | U-251 60.4 µM | HCT-116 > 100 µM | SR > 100 µM | SNB-75 20 µM | NCI-H460 > 100 µM | CAKI-1 > 100 µM | CCRF-CEM > 100 µM | NCI/ADR-RES > 100 µM | PC-3 > 100 µM | HOP-62 71.3 µM | K562 > 100 µM | SW-620 > 100 µM | MCF7 > 100 µM | OVCAR-5 > 100 µM | HL-60 > 100 µM | A549 > 100 µM

CCOC(=O)c1sc2c(c1O)c(=O)n(-c1ccccc1)c(=S)n2-c1ccccc1
inactive: BT-549 56.6 µM | T47D > 100 µM | U-251 76.6 µM | SR 10.8 µM | SNB-75 37.5 µM | NCI-H460 > 100 µM | CCRF-CEM 32.7 µM | K562 42.8 µM | SW-620 99.3 µM | MCF7 67.6 µM | OVCAR-5 > 100 µM | NCI-H522 46.6 µM | HL-60 35.1 µM | A549 55.3 µM

CS/C(=N\C#N)S/C=C/C(=O)c1ccc(Cl)cc1
inactive: T47D 25 µM | SK-OV-3 42.7 µM | U-251 31.9 µM | HCT-116 18.5 µM | SR 3.13 µM | SNB-75 43 µM | NCI-H460 > 100 µM | CAKI-1 6.52 µM | CCRF-CEM 78.5 µM | NCI/ADR-RES 27.7 µM | PC-3 46.6 µM | HOP-62 38.2 µM | K562 10.5 µM | SW-620 15.6 µM | MCF7 26.4 µM | OVCAR-5 39.4 µM | NCI-H522 18.3 µM | HL-60 8.15 µM | A549 > 100 µM

CCOC(=O)c1ccc(Nc2nc3ccccc3nc2C(=O)OCC)cc1
inactive: BT-549 > 100 µM | T47D > 100 µM | SK-OV-3 > 100 µM | U-251 > 100 µM | HCT-116 > 100 µM | SR > 100 µM | SNB-75 24.7 µM | NCI-H460 > 100 µM | CAKI-1 > 100 µM | CCRF-CEM > 100 µM | NCI/ADR-RES > 100 µM | HOP-62 > 100 µM | K562 > 100 µM | MCF7 > 100 µM | OVCAR-5 > 100 µM | NCI-H522 > 100 µM | HL-60 > 100 µM | A549 > 100 µM

COc1ccc(P2(=S)OC(C)(C)C(C)(C)O2)cc1
inactive: T47D 6.93 µM | U-251 > 100 µM | HCT-116 > 100 µM | SR > 100 µM | SNB-75 > 100 µM | NCI-H460 > 100 µM | CAKI-1 50.9 µM | CCRF-CEM > 100 µM | NCI/ADR-RES > 100 µM | PC-3 > 100 µM | HOP-62 > 100 µM | K562 > 100 µM | SW-620 > 100 µM | MCF7 > 100 µM | OVCAR-5 > 100 µM | NCI-H522 > 100 µM | HL-60 > 100 µM | A549 > 100 µM

Cc1cccc(N2C(=O)/C(=C/c3ccc(N(CCC#N)CCC#N)cc3C)N=C2c2cc([N+](=O)[O-])ccc2Cl)c1
inactive: SK-OV-3 > 100 µM | U-251 > 100 µM | HCT-116 85.7 µM | SR > 100 µM | SNB-75 > 100 µM | NCI-H460 > 100 µM | CAKI-1 8.18 µM | CCRF-CEM 41.9 µM | HOP-62 > 100 µM | K562 86.1 µM | SW-620 > 100 µM | OVCAR-5 > 100 µM | NCI-H522 > 100 µM | HL-60 74 µM | A549 > 100 µM

NCc1ccc(C(=O)O)cc1 [AMINOMETHYLBENZOIC ACID]
inactive: BT-549 > 100 µM | T47D > 100 µM | U-251 > 100 µM | HCT-116 > 100 µM | SR > 100 µM | NCI-H460 > 100 µM | CAKI-1 > 100 µM | NCI/ADR-RES > 100 µM | PC-3 > 100 µM | HOP-62 > 100 µM | K562 > 100 µM | SW-620 > 100 µM | OVCAR-5 > 100 µM | NCI-H522 > 100 µM | HL-60 > 100 µM | A549 > 100 µM
